In experiment [1] the test system is tolerant cell line 2167-9/2160-154 S-2. As to the kind of experiment: Callus growth on herbicide medium, line S-2. It counts as cell-based, maize. The protocol:
(§1) Tolerant cell line 2167-9/2160-154 S-2 (“S-2”) was characterized to evaluate: (1) the magnitude of sethoxydim tolerance; (2) cross-tolerance of haloxyfop; and (3) the biochemical basis for the tolerance. Callus tissue from S-2 that had been maintained on 10 μM sethoxydim was transferred to media containing up to 100 μM sethoxydim. One-half gram of S-2 tissue was plated on a 7 cm filter paper as a lawn overlaying 50 ml agar-solidified culture medium containing 0, 0.5, 1.0, 2.0, 5.0, 10.0, 50.0 and 100 μM sethoxydim, and cultured for two weeks. Control cell line 2167-9/2160-154 was plated similarly on medium containing the same levels of sethoxydim. The control cell line growth after two weeks was inhibited 50% at 1 μM sethoxydim.

In experiment [2] the test system is ACCase of cell line 2167-9/2160-154 S-1. As to the kind of experiment: Herbicide inhibition of ACCase, line S-1. It counts as biochemical, maize. Conditions: cell line S-1. Here is the method: Maize chloroplasts, isolated as described above, were suspended in buffer C (0.1 M Tricine-KOH, pH 8.0; 0.3 M glycerol, and 1 mM DTT) and homogenized in a glass tissue homogenizer. The disrupted chloroplast fraction was centrifuged at 16,000 g for 15 minutes. The supernatant was desalted on a Sephadex G-25 column (1.5×5 cm equilibrated with 0.1 M Tricine-KOH, pH 8.0; and 0.3 M glycerol) and assayed directly. ACCase activity (B. J. Nikolau et al., Arch. Biochem. Biophys., 211, 605-612 (1981)) was assayed at 30° C. in a 0.2 ml volume which contained 1 mM ATP, 3 mM acetyl coenzyme A, 2.5 mM MgCl2, 50 mM KCl, 0.5 mM DTT, and 15 mM [^14C]NaHCO3 (0.17 mCi/mmol). Reactions were initiated by addition of acetyl coenzyme A and stopped by addition of 25 μl of 12 N HCl. Product formation was determined by the radioactivity found in an acid stable fraction by liquid scintillation spectrometry. Enzyme activity was linear for 15 minutes.
Acetyl Coenzyme A Carboxylase (ACCase) was extracted from cell lines S-1, H-1 and H-2 and assayed as described in detail for maize cell line S-2, above.

Experiment [3] deals with cell line 2167-9/2160-154 H-2. The experiment can be described thus: Callus herbicide tolerance, line H-2. It counts as cell-based, maize. The settings on record: cell line H-2. The protocol: as §1
(§2) The tolerant callus cultures were characterized to determine the magnitude of sethoxydim and haloxyfop tolerance. Callus tissue from these lines was evaluated in experiments as described above in the characterization of line 2167-9/2160-154 S-2.

For experiment [4], the system named is control cell line 2167-9/2160-154. The experiment can be described thus: Callus growth on herbicide medium, control line. It counts as cell-based, maize. The settings on record: for pIC50: read-out: Herbicide concentration inhibiting growth 50%. Here is the method: A selection protocol to identify and isolate herbicide-tolerant maize cells was developed to minimize the adverse effects of high herbicide concentrations on somatic embryo development and plant regeneration capacity. The procedure involved exposing tissue to gradually increasing concentrations of herbicide beginning with a sethoxydim concentration representing 1/20th of lethal dose and doubling the herbicide concentration at approximately two-week intervals until the lethal dose (10 μM sethoxydim) was reached. In this way, the herbicide was allowed to take effect slowly with continuous selection pressure, thus permitting herbicide-tolerant cells to accumulate over time while not affecting the potential for plant regeneration.
Approximately 100 grams of vigorously growing, regenerable, friable, embryogenic maize callus tissue established from an F1 immature embryo resulting from the cross A188×B73 were transferred to agar-solidified maintenance medium (Armstrong and Green, Planta, 164, 207 (1985)) in petri plates containing 0.5 μM sethoxydim (BASF) (Parsippany, N.J.). This callus line was designated 2167-9/2160-154. Forty plates were prepared and five clumps of callus tissue weighing about 0.5 grams each were placed on each plate. The 0.5 μM sethoxydim concentration was chosen from growth inhibition studies to provide less than 10-20% growth inhibition during the first two weeks of herbicide exposure. After 14 days, 0.25-0.5 gram pieces of tissue showing vigorous growth rate and retention of embryogenic morphology (i.e., presence of somatic embryos) were subcultured on fresh medium containing 1.0 μM sethoxydim. Eighty plates containing five pieces of tissue per plate were prepared. For each subsequent transfer, all callus tissue showing growth and somatic embryo forming ability was placed on fresh media containing a two-fold increased sethoxydim concentration. Therefore, callus was transferred at two-week intervals to petri plates containing 0.5, 1.0, 2.0, 5.0 and 10.0 μM sethoxydim. During the course of the selection process, the total number of lines decreased as the herbicide-mediated growth inhibition became more intense. […] These lines were designated 2167-9/2160-154 S-1 and 2167-9/2160-154 S-2.
Tolerant cell line 2167-9/2160-154 S-2 (“S-2”) was characterized to evaluate: (1) the magnitude of sethoxydim tolerance; (2) cross-tolerance of haloxyfop; and (3) the biochemical basis for the tolerance. Callus tissue from S-2 that had been maintained on 10 μM sethoxydim was transferred to media containing up to 100 μM sethoxydim. One-half gram of S-2 tissue was plated on a 7 cm filter paper as a lawn overlaying 50 ml agar-solidified culture medium containing 0, 0.5, 1.0, 2.0, 5.0, 10.0, 50.0 and 100 μM sethoxydim, and cultured for two weeks. […]

Experiment [5] relates to inbred wildtype control plants. The experiment can be described thus: Allelism testcross experiments, susceptible controls. It counts as in vivo, maize (Zea mays L.). The protocol:
Foliar applications of the herbicides were made to greenhouse- or field-grown seedlings at the three- to five-leaf stage. Herbicides were applied in a spray volume of 187 l/ha that includes 2.3 l/ha crop oil concentrate to enhance uptake. Sethoxydim and haloxyfop were applied using commercial formulations (Poast from BASF Corp and Verdict from Dow Elanco, respectively). Visual observations were recorded 14-21 days after herbicide treatments.
All F1 combinations (no reciprocals) between S1, S2, S3, H1 and H2 homozygotes were made, and these F1s were test crossed to susceptible inbred lines. The testcross progeny were grown in the greenhouse and treated with the herbicides. In Experiment 1, progeny from testcrosses with each of the ten F1 combinations were treated with 0.05 kg/ha sethoxydim for combinations involving only S lines or with 0.009 kg/ha haloxyfop for combinations involving either of the H lines. In Experiment 2, a selected subset of the F1 combinations was tested that used testcross families that were separately derived from those used in Experiment 1. Testcross progeny of S lines were treated with 0.03 kg/ha sethoxydim, and H1 and H2 progeny were treated with 0.009 kg/ha haloxyfop. In each experiment, known susceptible and heterozygous plants were included as controls.

The subject of experiment [6] is cell line 2167-9/2160-154 H-1. The experiment can be described thus: Callus herbicide tolerance, line H-1. It counts as cell-based, maize. The settings on record: cell line H-1. Here is the method: as §1, §2

pIC50: −log10 of the molar value. Where two headings read alike, the source gives them in different places.

The term inhibition denotes the share of the control response that was lost under treatment.

As for `CCCC(=NOCC)C1=C(O)CC(CC(C)SCC)CC1=O` (stereo not shown) [Sethoxydim, 2-[1-(ethoxyimino)-butyl]-5-[2-(ethylthio)propyl]-3-hydroxy-2-cyclohexen-1-one], in experiment [1] (100 μM sethoxydim, cultured two weeks), the “Growth of S-2 callus” value is “not inhibited”. In experiment [1] (callus growth), the “Fold increase in tolerance of S-2 versus control callus line (growth)” value is “at least 100 fold”. In addition, the “Fold increase in herbicide concentration that inhibits ACCase activity by 50% vs unselected parent cell line” value in experiment [2] was 4 fold; in experiment [2] (listed as sethoxydim) it was “more tolerant”. Further, the “Fold increase in herbicide concentration that results in a 50% reduction in growth vs unselected control cell line” value is recorded as 0 fold in experiment [3], “Neither haloxyfop selected line showed a significant degree of sethoxydim tolerance” in experiment [3] (listed as sethoxydim), 0 fold in experiment [6] and “Neither haloxyfop selected line showed a significant degree of sethoxydim tolerance” in experiment [6] (listed as sethoxydim). The inhibition at 0.5 µM in experiment [4] (Zea mays, 336 h, read-out: Growth inhibition) was 10 to 20%. Further, in experiment [4] (Zea mays, 336 h), the pIC50 was 6.00. Besides, the “Lethal dose for callus tissue” value in experiment [4] (tissue culture selection protocol) was found to be 10 µM. The “Response of inbred wildtype control plants” value in experiment [5] (0.05 kg/ha (Experiment 1) or 0.03 kg/ha (Experiment 2) sethoxydim) is reported as “all inbred wildtype plants died”.

Consider `CC(Oc1ccc(Oc2ncc(C(F)(F)F)cc2Cl)cc1)C(=O)O` (stereo not shown) [Haloxyfop, 2-[4-[[3-chloro-5-(trifluoromethyl)-2-pyridinyl]oxy]phenoxy]-propanoic acid], for which the pIC50 in experiment [1] (Zea mays, callus growth, read-out: Herbicide concentration inhibiting growth of S-2) is 6.19; in experiment [4] (Zea mays, 336 h, control callus, growth after two weeks), 7.70. For the same molecule, the “Fold increase in tolerance of S-2 versus control callus line (growth)” value in experiment [1] (callus growth) is about 30 fold. In addition, the figures for the “Fold increase in herbicide concentration that inhibits ACCase activity by 50% vs unselected parent cell line” value in experiment [2] and in experiment [2] (listed as haloxyfop) were 3 fold and “more tolerant”, respectively. Besides, the “Fold increase in herbicide concentration that results in a 50% reduction in growth vs unselected control cell line” value is listed as 4 fold in experiment [3], “four-fold increase” in experiment [3] (listed as haloxyfop), 61 fold in experiment [6] and about 60 fold in experiment [6] (listed as haloxyfop). Also, in experiment [5] (0.009 kg/ha haloxyfop), the “Response of wildtype control plants” value was “killed most, but not all”.
